Data as given in patent US4900658A, “Chromophoric peptides for detecting peptidylglycine-α-amidizing monooxygenase” (Hoechst Aktiengesellschaft, priority 1986, dated 1990).
Where a SMILES comes first, the peptide text is derived from it. [ ]: non-standard residue; d: D form. The star is where a group is joined. Dansyl = CN(C)c1cccc2c(S(=O)(=O)*)cccc12

Target: peptidylglycine-α-amidizing monooxygenase (PAM) (Bos taurus, UniProt P10731)
Settings: after 3 hours
Method: The tests with the substrate, according to the invention, of the formula I (R=Gly--OH) and with the comparison substance of the formula I (R=NH2) were carried out both with the crude fractions and also with the enriched fractions.
Procedure for enzyme assay using the substrate of the formula I (R=Gly--OH) and the reference substance of the formula II (R=NH2)
The enzyme tests are carried out in a buffer of pH 7.4. The aqueous buffer is composed of the buffer substance N-[tris-(hydroxymethyl)-methyl]-2-amino-ethanesulfonic acid (100 mM), CuSO4 (3 μM), peptide substrate of the formula I (R=Gly--OH) (50 μM) and catalase from bovine liver (100 μg/ml). 100 μl of this buffer solution are incubated with 100 μl of the solution containing PAM, and, after 3 hours at 37° C., the reaction is stopped by adding 700 μl of CH2 Cl2. […] After the mixture has been centrifuged and the organic phase removed, the latter is evaporated in a vacuum centrifuge and the residue is again taken up in a constant volume of CH2 Cl2. All operations are carried out with exclusion of light in order to prevent photo-reactions of the light-sensitive substrate. […] Quantification of the resulting amide of the formula I (R=NH2) by means of a thin layer scanner is made possible by simultaneously applying the peptide amide of the formula II in various concentrations as a reference.

Chain of peptidylglycine-α-amidizing monooxygenase (PAM) (P10731 31-972): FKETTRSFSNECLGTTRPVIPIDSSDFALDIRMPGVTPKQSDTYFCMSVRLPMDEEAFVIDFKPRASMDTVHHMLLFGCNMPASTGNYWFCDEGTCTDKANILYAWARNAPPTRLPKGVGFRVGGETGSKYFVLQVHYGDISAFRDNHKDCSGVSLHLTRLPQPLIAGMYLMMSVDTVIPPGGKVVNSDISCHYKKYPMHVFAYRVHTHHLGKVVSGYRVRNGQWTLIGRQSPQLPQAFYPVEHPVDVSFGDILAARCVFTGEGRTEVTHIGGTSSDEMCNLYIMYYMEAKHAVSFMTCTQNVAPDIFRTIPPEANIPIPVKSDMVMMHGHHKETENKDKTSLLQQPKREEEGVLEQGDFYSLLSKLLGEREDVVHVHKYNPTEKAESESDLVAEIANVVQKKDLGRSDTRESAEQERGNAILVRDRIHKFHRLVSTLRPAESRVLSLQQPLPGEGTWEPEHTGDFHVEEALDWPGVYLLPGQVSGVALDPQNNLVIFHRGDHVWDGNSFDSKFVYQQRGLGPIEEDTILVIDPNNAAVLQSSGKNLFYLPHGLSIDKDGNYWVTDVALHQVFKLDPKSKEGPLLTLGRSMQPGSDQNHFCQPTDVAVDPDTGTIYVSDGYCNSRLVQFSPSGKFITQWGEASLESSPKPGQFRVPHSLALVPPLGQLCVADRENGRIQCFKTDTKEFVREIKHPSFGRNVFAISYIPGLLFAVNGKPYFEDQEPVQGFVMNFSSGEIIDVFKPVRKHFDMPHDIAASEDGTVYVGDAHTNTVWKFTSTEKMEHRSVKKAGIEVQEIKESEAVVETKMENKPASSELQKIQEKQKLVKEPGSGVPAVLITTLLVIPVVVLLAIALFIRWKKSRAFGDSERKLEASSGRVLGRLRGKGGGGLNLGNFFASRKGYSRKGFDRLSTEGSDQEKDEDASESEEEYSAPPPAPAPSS

## C[C@@H](NS(=O)(=O)c1cccc2c(N(C)C)cccc12)C(=O)N1CCC[C@H]1C(=O)NCC(=O)O [DIS-D-Ala--Pro--Gly--OH, DIS--D--Ala--Pro--Gly--OH] (Dansyl-[dA]-Pro-Gly-OH)
  Share of the substrate reacted: approx. 5%
